Source: paper PMC7582918, “A short peptide of the C-terminal class Y helices of apolipoprotein A-I has preserved functions in cholesterol efflux and in vivo metabolic control” (Scientific Reports, 2020)

Columns and labels:
J774 macrophages = conditions: previously described; cited from earlier work
Description: To analyze this, cultured J774 macrophages were loaded with isotope-labelled cholesterol, followed by incubation with RG33 (LF or LB) at specified concentrations for 2 h (Fig. 3a).

[1] = previously shown; cited from earlier work
Source text: Circular dichroism (CD) spectroscopy (Fig. 2a) was next used to assay for peptide integrity and secondary structure. The helical content of the RG33 peptide in solution was based on the CD data and estimated to be on average 31%. This is higher than the helical content of the 190–243 ApoA-I peptide which was previously shown to be in the range of 17–21% alpha-helix[11]. A high helical content combined with an amphipathic arrangement of the helices is important for the lipid-binding function. Indeed, the binding of lipids induces formation of amphipathic helixes of the ApoA-I protein[23]. In li ...

[2] = Stability in PBS (LC-MS up to 90 min; LC-UV up to 168 h); format: physicochemical
Description: (§1) Mouse CD-1 plasma (heparin) was from Novakemi AB. Analysis was performed using LC–MS/MS, a Sciex QTRAP 6500 coupled to a Waters Acquity LC system with an attached HSS T3 2 × 50 mm column. A 5%-100% acetonitrile gradient and 0.1% formic acid was used as mobile phase.
(§2) A 33-mer peptide (RG33) that corresponds to the two Class Y helices (11 and 22 residues, respectively) of the C-terminal domain of ApoA-I (corresponding to regions 209–219 and 220–241 of ApoA-I, respectively) was synthesized and chemically modified at the termini for increased stability (Fig. 1a), and analyzed by SDS-PAGE (Fig. 1b; Suppl. Fig.). Such modifications are known to lead to loss of the terminal charges of the modified peptide with potential reduction in solubility. […] Moreover, the stability of the peptide was tested by incubation for up to 90 min in either PBS or human or mouse plasma followed by LC–MS analysis of the peptide in the complex mixture, or for longer time periods (up to 168 h at 5 °C or 22 °C) in PBS followed by LC-UV analysis of the pure peptide. […] The extent of degradation in plasma was assumed not to affect the in vitro and in vivo analyses made herein. Nevertheless, while not needed for the current study, further modifications aimed at prolonging the half-life of the RG33 peptide in plasma would be beneficial for therapeutic uses.
(§3) Figure 1 Peptide characterization for RG33. (a) Full peptide sequence. (b) Peptide purity as shown by Tris/Tricine SDS PAGE visualized by coomassie staining, 5 μg/well. (c) Stability of native or refolded RG33 over time in phosphate buffer, human plasma or mouse plasma. GraphPad Prism (version 8.0) (www.graphpad.com) was used. TEXT PRINTED IN THE PICTURE: (a) RG33: MW (g/mol): 3790.42; Solubility: > 3.0 mg/ml

[3] = Solubility of the peptide; format: physicochemical; conditions: peptide chemically modified at the termini
Source text: as §2
as §3, with “TEXT PRINTED IN THE PICTURE: (a) RG33: MW (g/mol): 3790.42; Solubility: > 3.0 mg/ml” left out

[4] = Stability in human plasma (LC-MS/MS); format: in vitro ADME; conditions: human plasma (citrate), pooled from four donors, incubation up to 90 min
Description: Peptide (lyophilized powder) produced by Red Glead AB (Lund, Sweden) was reconstituted as previously described. Peptide concentration was determined using a NanoDrop 2000c spectrophotometer (Thermo Scientific), and integrity was analysed by Tris-Tricine SDS-PAGE followed by Coomassie staining and by circular dichroism spectroscopy (CD). CD spectra were acquired on a Jasco J-810 spectropolarimeter equipped with a Jasco CDF-426S Peltier, set to 25 °C[18]. Samples were loaded into a 1 mm quartz cuvette and CD spectra acquired at 25 °C in the far-UV range 200–260 nm, with a 1 nm wavelength increment. Averages of five scans were baseline-subtracted (PBS buffer; 25 mM phosphate, 150 mM NaCl) and the alpha-helical content was calculated from the molar ellipticity at 222 nm as previously described[11],[19]. Human plasma (citrate) was from Blodcentralen at the Uppsala academic hospital and pooled from four healthy volunteer blood donors after giving informed consent for general research use. […]
A 33-mer peptide (RG33) that corresponds to the two Class Y helices (11 and 22 residues, respectively) of the C-terminal domain of ApoA-I (corresponding to regions 209–219 and 220–241 of ApoA-I, respectively) was synthesized and chemically modified at the termini for increased stability (Fig. 1a), and analyzed by SDS-PAGE (Fig. 1b; Suppl. Fig.). […]

[5] = Stability in mouse plasma (LC-MS/MS); format: in vitro ADME; conditions: mouse CD-1 plasma (heparin), incubation up to 90 min
Description: as §1, §2
Figure 1 Peptide characterization for RG33. […]

[6] = rHDL formation / solubilization of DMPC multilamellar vesicles, dynamic light scattering; conditions: 100 nm DMPC MLVs, 4 days at 24 °C, DLS
Description: 1,2-Dimyristoyl-sn-glycero-3-phosphocholine (DMPC; Avanti Polar Lipids) was formed into 100 nm multilamellar vesicles (MLV) via extrusion using the LiposoFast system (Avestin) as previously described. MLV were incubated with RG33 at indicated ratios for 4 days at 24 °C to form rHDL. The resulting particle sizes were measured by Dynamic Light Scattering using a Zetasizer APS (Malvern Instruments).
Figure 2 Peptide structure and lipid complex formation activity of RG33. (a) Circular dichroism spectroscopy of RG33 dissolved in PBS at 0.2 mg/ml. This spectrum represents the average of five measurements using five separate solutions. (b) Helical wheel analysis of residues 209 to 241 of the ApoA-I protein. One-letter code for amino acids is used and numbered 1 to 33 with start at residue 209. (c) rHDL particles were prepared by incubating the MLVs with RG33 peptide in the molar ratios noted at 24 °C for four days. Particle size distribution was analysed by DLS and frequency curves generated for RG33. Both MLVs alone (data on pure 100 nm MLVs is adapted from[15]) and lipid-free peptide are included as controls. GraphPad Prism (version 8.0) (www.graphpad.com) was used. Data represents five individual experiments.
As described above, the amphipathic organization of the RG33 peptide is expected to promote efficient lipid-binding. […]

Stability in PBS, shorter incubation ([2]; PBS (phosphate buffer), incubation up to 90 min, LC-MS analysis)	Stability in PBS, longer storage at 5 °C ([2]; PBS, up to 168 h (a week) at 5 °C, LC-UV analysis of the pure peptide, data not shown)	Stability in PBS, longer storage at 22 °C ([2]; PBS, up to 168 h (a week) at 22 °C, LC-UV analysis of the pure peptide, data not shown)	Solubility [3] [µg/mL]	Stability in human plasma [4]	Stability in mouse plasma [5]	Solubilization of DMPC MLVs at 1:50 peptide-to-lipid molar ratio [6]	Substance	Fold increase in Vmax, LB vs LF (J774 macrophages)	Helical content (alpha-helix) [1]
–	–	–	–	–	–	–	RG54: Peptide corresponding to amino acid residues 190–243 of ApoA-I protein (AEYHAKATEHLSTLSEKAKPALEDLRQGLLPVLESFKVSFLSALEEYTKKLNTQ; UniProt P02647 214-267, looked up, fragment)	twofold increase	17–21%
intact	intact	intact	> 3000	some degradation	some degradation	only partial solubilization	Ac-PALEDLRQGLLPVLESFKVSFLSALEEYTKKLN-NH2 [RG33]	–	–
